{"source": "the Kinase Knowledgebase extract (Sharma et al. 2016)", "key": {"ROCK2 (human)": {"biological_target": "ROCK2 (human) (UniProt O75116)", "sequence (O75116 whole entry, looked up)": "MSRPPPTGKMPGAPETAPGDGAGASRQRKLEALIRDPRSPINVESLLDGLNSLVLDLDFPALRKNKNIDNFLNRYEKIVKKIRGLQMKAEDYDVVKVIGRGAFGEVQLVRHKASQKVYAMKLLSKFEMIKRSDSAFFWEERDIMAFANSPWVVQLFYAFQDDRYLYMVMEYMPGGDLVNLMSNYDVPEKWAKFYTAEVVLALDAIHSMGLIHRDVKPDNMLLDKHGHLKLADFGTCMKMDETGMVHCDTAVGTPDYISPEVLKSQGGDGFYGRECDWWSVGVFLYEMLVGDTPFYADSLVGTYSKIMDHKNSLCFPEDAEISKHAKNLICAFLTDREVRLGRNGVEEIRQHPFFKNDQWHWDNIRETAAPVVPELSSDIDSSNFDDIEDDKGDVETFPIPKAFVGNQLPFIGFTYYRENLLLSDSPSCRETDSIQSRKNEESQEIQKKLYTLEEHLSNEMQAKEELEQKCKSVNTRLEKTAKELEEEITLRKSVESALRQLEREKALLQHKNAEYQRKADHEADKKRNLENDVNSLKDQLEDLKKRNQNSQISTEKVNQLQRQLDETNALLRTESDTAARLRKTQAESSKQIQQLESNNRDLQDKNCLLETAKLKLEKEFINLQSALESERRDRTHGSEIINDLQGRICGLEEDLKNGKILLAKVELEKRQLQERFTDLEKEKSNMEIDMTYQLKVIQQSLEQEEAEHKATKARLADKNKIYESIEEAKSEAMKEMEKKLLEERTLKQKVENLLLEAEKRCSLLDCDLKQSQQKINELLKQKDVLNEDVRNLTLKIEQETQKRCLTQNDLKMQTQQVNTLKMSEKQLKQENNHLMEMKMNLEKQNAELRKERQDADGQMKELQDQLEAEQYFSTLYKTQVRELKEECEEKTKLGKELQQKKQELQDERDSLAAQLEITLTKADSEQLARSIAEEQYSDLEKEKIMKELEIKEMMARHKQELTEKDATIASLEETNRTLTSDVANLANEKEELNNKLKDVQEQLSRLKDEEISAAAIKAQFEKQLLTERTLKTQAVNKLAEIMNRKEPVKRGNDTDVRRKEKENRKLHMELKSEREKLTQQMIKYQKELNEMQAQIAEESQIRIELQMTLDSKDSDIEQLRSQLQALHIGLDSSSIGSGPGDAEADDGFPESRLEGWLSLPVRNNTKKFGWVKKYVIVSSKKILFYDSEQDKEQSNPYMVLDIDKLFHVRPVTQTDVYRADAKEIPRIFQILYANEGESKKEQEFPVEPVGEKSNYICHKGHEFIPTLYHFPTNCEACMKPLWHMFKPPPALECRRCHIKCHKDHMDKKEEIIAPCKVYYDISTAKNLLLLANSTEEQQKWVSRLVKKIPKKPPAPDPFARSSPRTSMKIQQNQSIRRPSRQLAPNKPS"}, "EGFR [1]": {"biological_target": "EGFR (UniProt P00533)", "sequence (P00533 whole entry, looked up)": "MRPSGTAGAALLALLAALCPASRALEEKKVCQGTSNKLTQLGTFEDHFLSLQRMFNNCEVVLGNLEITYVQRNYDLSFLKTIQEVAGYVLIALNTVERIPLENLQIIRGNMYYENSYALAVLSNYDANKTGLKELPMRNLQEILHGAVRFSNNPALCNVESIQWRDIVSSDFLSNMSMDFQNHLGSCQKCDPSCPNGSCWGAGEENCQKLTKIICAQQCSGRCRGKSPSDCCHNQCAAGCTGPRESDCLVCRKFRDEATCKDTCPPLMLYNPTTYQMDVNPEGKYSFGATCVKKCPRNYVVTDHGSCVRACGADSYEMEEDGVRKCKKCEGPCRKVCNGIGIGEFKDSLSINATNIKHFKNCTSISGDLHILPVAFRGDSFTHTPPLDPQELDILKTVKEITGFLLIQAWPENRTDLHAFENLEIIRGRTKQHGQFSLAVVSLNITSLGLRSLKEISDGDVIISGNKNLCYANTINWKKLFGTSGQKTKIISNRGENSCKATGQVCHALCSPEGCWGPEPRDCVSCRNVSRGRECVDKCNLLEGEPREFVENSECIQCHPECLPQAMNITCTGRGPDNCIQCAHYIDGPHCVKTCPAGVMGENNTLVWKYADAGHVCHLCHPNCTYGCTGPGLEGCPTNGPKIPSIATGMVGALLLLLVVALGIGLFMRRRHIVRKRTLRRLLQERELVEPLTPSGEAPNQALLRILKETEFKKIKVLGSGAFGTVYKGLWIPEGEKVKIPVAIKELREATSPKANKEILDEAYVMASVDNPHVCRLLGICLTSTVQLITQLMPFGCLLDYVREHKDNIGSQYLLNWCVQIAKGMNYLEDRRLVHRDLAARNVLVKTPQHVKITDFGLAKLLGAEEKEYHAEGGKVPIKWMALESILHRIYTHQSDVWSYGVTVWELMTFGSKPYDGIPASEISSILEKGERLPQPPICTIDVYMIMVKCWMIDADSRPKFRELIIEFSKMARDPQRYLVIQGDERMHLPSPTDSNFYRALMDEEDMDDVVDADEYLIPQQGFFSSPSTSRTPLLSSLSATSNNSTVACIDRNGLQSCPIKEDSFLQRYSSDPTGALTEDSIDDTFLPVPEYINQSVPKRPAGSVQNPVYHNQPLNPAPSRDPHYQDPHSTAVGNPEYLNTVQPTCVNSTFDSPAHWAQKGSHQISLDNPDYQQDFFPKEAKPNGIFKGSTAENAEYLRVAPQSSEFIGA", "details": "concentration not given here"}, "PIK3CA (human)": {"biological_target": "PIK3CA (human) (UniProt P42336)", "assay": "Inhibition of PIK3CA Kinase Activity"}, "PIK3CG (human)": {"biological_target": "PIK3CG (human) (UniProt P48736)", "sequence (P48736 whole entry, looked up)": "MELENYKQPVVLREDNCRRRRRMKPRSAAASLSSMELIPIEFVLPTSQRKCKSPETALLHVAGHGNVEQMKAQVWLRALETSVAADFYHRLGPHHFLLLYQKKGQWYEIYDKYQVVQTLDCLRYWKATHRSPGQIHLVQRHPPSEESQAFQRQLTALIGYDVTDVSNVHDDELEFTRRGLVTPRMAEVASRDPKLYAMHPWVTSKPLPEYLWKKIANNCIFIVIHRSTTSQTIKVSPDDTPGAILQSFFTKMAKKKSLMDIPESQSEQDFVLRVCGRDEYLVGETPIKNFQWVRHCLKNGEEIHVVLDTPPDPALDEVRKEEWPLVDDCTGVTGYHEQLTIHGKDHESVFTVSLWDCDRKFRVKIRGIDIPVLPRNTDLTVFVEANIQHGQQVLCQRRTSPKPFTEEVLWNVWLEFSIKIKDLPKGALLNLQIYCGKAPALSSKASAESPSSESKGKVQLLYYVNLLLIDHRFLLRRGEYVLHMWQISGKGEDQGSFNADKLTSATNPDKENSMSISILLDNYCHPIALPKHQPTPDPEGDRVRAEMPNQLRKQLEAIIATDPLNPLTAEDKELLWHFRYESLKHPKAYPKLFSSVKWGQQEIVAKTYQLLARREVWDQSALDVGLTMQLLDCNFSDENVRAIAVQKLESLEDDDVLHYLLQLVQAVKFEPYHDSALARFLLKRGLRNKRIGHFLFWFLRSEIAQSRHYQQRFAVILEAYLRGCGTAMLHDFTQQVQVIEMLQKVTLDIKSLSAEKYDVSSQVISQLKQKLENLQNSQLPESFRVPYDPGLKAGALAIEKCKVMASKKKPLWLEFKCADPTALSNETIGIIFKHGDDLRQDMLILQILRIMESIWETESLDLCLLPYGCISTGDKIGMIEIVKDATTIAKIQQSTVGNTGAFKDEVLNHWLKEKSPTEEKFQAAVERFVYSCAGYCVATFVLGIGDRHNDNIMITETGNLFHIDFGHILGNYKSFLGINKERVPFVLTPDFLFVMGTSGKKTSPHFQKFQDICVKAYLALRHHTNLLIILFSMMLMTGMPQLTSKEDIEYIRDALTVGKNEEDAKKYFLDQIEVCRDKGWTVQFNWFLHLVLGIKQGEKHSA", "assay": "Inhibition of PIK3CG Kinase Activity"}, "PIK3CD (Human)": {"biological_target": "PIK3CD (Human) (UniProt O00329)", "assay": "Inhibition of PIK3CD Kinase Activity"}, "PIK3CB (Human)": {"biological_target": "PIK3CB (Human) (UniProt P42338)", "assay": "Inhibition of PIK3CB Kinase Activity"}, "EGFR [2]": {"biological_target": "EGFR (UniProt P00533)"}, "PIK3CG": {"biological_target": "PIK3CG (UniProt P48736)", "sequence (P48736 whole entry, looked up)": "as above", "assay": "Inhibition of PIK3CG Kinase Activity"}, "EGFR [3]": {"biological_target": "EGFR (UniProt P00533)", "remark": "listed apart in the source"}, "EGFR (Hamster)": {"biological_target": "EGFR (Hamster) (UniProt P00533)", "sequence (P00533 whole entry, looked up)": "as the sequence (P00533 whole entry, looked up) above"}, "PIK3CG;PIK3CA (human)": {"biological_target": "PIK3CG;PIK3CA (human) (UniProt P48736)", "sequence (P48736 whole entry, looked up)": "as the sequence (P48736 whole entry, looked up) above", "assay": "Antiproliferation of PC3-MM2 Cells", "details": "pc-3"}, "CDK2 (human) [4]": {"biological_target": "CDK2 (human) (UniProt P24941)", "assay": "Enzyme Assay"}, "EGFR [5]": {"biological_target": "EGFR (UniProt P00533)", "details": "cho.ir; for activation: concentration not given here"}, "CDK2 (human) [6]": {"biological_target": "CDK2 (human) (UniProt P24941)", "assay": "Enzyme Assay", "remark": "listed apart in the source"}, "MAPK14": {"biological_target": "MAPK14 (UniProt Q16539)", "assay": "p38-alpha Kinase Inhibition"}, "EGFR (mouse)": {"biological_target": "EGFR (mouse) (UniProt P00533)"}, "EGFR [7]": {"biological_target": "EGFR (UniProt P00533)", "remark": "listed apart in the source"}}, "note": "“And” between values parts separate entries of the source, which are not always exact repeats. Equal entries are not always repeated."}
{"smiles": "CCOc1ccc2c(c1)CC(C(=O)Nc1ccc(-c3cn[nH]c3)cc1OCCN(C)C)NC2", "note": "(stereo unspecified)", "values": [{"measurement": "IC50", "setting": "ROCK2 (human)", "result": 850, "unit": "nM"}]}
{"smiles": "NC(=O)c1c(NC(=O)Nc2ccc(F)cc2)sc2c1CCC(=O)C2", "values": [{"measurement": "inhibition", "setting": "EGFR [1]", "result": "> 50", "unit": "%"}]}
{"smiles": "NC(Cc1cccc(Cl)c1)C(=O)Nc1ccc(-c2cn[nH]c2)cc1", "note": "(stereo unspecified)", "values": [{"measurement": "IC50", "setting": "ROCK2 (human)", "result": 2, "unit": "nM"}]}
{"smiles": "C=CCN(/C=C1/C(=O)O[C@H](COC)[C@@]2(C)C1=C(O)C(=O)C1=C2[C@H](OC(C)=O)C[C@]2(C)C(=O)CC[C@H]12)CC=C", "values": [{"measurement": "IC50", "setting": "PIK3CA (human)", "result": 39, "unit": "nM"}, {"measurement": "IC50", "setting": "PIK3CG (human)", "result": 198, "unit": "nM"}, {"measurement": "IC50", "setting": "PIK3CD (Human)", "result": 124, "unit": "nM"}, {"measurement": "IC50", "setting": "PIK3CB (Human)", "result": 88, "unit": "nM"}]}
{"smiles": "COc1ccc2c(c1)CN[C@@H](C(=O)Nc1ccc(-c3cn[nH]c3)cc1OCCN(C)C)C2", "values": [{"measurement": "IC50", "setting": "ROCK2 (human)", "result": 261, "unit": "nM"}]}
{"smiles": "CN(C)CCCn1nc(C2=C(c3cn(-c4cccs4)c4ccccc34)C(=O)NC2=O)c2ccccc21", "values": [{"measurement": "IC50", "setting": "EGFR [2]", "result": "> 10000", "unit": "nM"}]}
{"smiles": "CCN(CC)c1ncc2c(n1)-c1sc(NC(=O)N3CCC[C@@]3(Cc3ccccc3)C(N)=O)nc1CC2", "values": [{"measurement": "IC50", "setting": "PIK3CA (human)", "result": 45, "unit": "nM"}, {"measurement": "IC50", "setting": "PIK3CG (human)", "result": 1590, "unit": "nM"}, {"measurement": "IC50", "setting": "PIK3CD (Human)", "result": 740, "unit": "nM"}, {"measurement": "IC50", "setting": "PIK3CB (Human)", "result": 127, "unit": "nM"}]}
{"smiles": "N#CN=C1NC(=O)/C(=C/c2ccc3nccnc3c2)S1", "values": [{"measurement": "IC50", "setting": "PIK3CG", "result": "< 1000", "unit": "nM"}]}
{"smiles": "O=C(Nc1ccc(C(F)(F)F)cc1)Nc1ncnc2nn3ccccc3c12", "values": [{"measurement": "IC50", "setting": "EGFR [3]", "result": "> 10000", "unit": "nM"}]}
{"smiles": "COC(=O)c1cc(N=Cc2cccc(O)c2)ccc1O", "values": [{"measurement": "IC50", "setting": "EGFR (Hamster)", "result": "> 100000", "unit": "nM"}]}
{"smiles": "COc1ccc2c(c1)c(/C=C1\\Oc3cc(O)cc(O)c3C1=O)c1n2CCN(C)C1", "values": [{"measurement": "IC50", "setting": "PIK3CG;PIK3CA (human)", "result": 1610, "unit": "nM"}]}
{"smiles": "CC(C)n1cnc2c(NCc3cccnc3)nc(NCC(O)(C(F)(F)F)C(F)(F)F)nc21", "values": [{"measurement": "IC50", "setting": "CDK2 (human) [4]", "result": 949, "unit": "nM"}]}
{"smiles": "Cn1cc(C2=C(O)C(=O)C(c3ccccc3)=C(O)C2=O)c2ccccc21", "values": [{"measurement": "activation", "setting": "EGFR [5]", "result": "< 5", "unit": "%"}]}
{"smiles": "COc1ccc2c(c1)c(/C=C1\\Oc3cc(O)ccc3C1=O)c1n2CCC1", "values": [{"measurement": "IC50", "setting": "PIK3CG;PIK3CA (human)", "result": 3400, "unit": "nM"}]}
{"smiles": "CON=C1NC(=O)/C(=C/c2ccc3c(c2)OCO3)S1", "values": [{"measurement": "IC50", "setting": "PIK3CG", "result": "< 1000", "unit": "nM"}]}
{"smiles": "COC(=O)c1sccc1S(=O)(=O)N=C1NC(=O)/C(=C/c2ccc3ncccc3c2)S1", "values": [{"measurement": "IC50", "setting": "PIK3CG", "result": "< 1000", "unit": "nM"}]}
{"smiles": "COC(=O)c1cc(N=Cc2cc(OC)ccc2OC)ccc1O", "values": [{"measurement": "IC50", "setting": "EGFR (Hamster)", "result": "> 10000", "unit": "nM"}]}
{"smiles": "CCC(Nc1nc(NCc2ccc(C(F)(F)F)nc2)c2ncn(C(C)C)c2n1)C(O)C(F)(F)F", "note": "(stereo unspecified)", "values": [{"measurement": "IC50", "setting": "CDK2 (human) [4]", "result": 368, "unit": "nM"}]}
{"smiles": "Cc1cccc2c(C3=C(O)C(=O)C(c4c[nH]c5ccccc45)=C(O)C3=O)c[nH]c12", "values": [{"measurement": "EC50", "setting": "EGFR [5]", "result": 25000, "unit": "nM"}]}
{"smiles": "CC[C@H](Nc1nc(NCc2cccc(Cl)c2)c2ncn(C(C)C)c2n1)[C@@H](C)O", "values": [{"measurement": "IC50", "setting": "CDK2 (human) [4]", "result": 100, "unit": "nM"}]}
{"smiles": "CC[C@H](Nc1nc(NCc2cccnc2)c2ncn(C(C)C)c2n1)C(C)(C)O", "values": [{"measurement": "IC50", "setting": "CDK2 (human) [6]", "result": 70, "unit": "nM"}, {"measurement": "IC50", "setting": "CDK2 (human) [4]", "result": 200, "unit": "nM"}]}
{"smiles": "CC1CC1C(=O)Nc1sc2c(Cl)c(O)ccc2c1C(N)=O", "note": "(stereo unspecified)", "values": [{"measurement": "inhibition", "setting": "EGFR [1]", "result": "> 50", "unit": "%"}]}
{"smiles": "NC(=O)c1c(NC(=O)C2CC2)sc2c(O)c(Br)ccc12", "values": [{"measurement": "inhibition", "setting": "EGFR [1]", "result": "> 50", "unit": "%"}]}
{"smiles": "COc1c(C(=O)N2CCC(Cc3ccc(F)cc3)CC2)ccc2[nH]c3c(c12)CCNC3", "values": [{"measurement": "IC50", "setting": "MAPK14", "result": 242, "unit": "nM"}]}
{"smiles": "N#Cc1cccc(NC(=O)Nc2ncnc3nn4ccccc4c23)c1", "values": [{"measurement": "IC50", "setting": "EGFR [3]", "result": "> 10000", "unit": "nM"}]}
{"smiles": "COC(=O)c1cc(N=Cc2ccccc2O)ccc1O", "values": [{"measurement": "IC50", "setting": "EGFR (Hamster)", "result": "> 100000", "unit": "nM"}]}
{"smiles": "NC(=O)c1c(NC(=O)C2CC2)sc2c1CCC(Br)(Br)C2=O", "values": [{"measurement": "inhibition", "setting": "EGFR [1]", "result": "> 50", "unit": "%"}]}
{"smiles": "CCCCCCCCCCCC(=O)O[C@@H]1[C@@H](C)[C@@]2(O)[C@@H](C=C(CO)C[C@]3(O)C(=O)C(C)=C[C@@H]23)[C@@H]2C(C)(C)[C@]12OC(C)=O", "values": [{"measurement": "ID50", "setting": "EGFR (mouse)", "result": 1.33, "unit": "nM"}]}
{"smiles": "CN(C)c1cc2c(Nc3cccc(Br)c3)ncnc2cn1", "values": [{"measurement": "IC50", "setting": "EGFR [7]", "result": 0.006, "unit": "nM"}]}
{"smiles": "COc1ccc2c(c1)c(/C=C1\\Oc3cc(O)cc(O)c3C1=O)c1n2CCOC1=O", "values": [{"measurement": "IC50", "setting": "PIK3CG;PIK3CA (human)", "result": 5630, "unit": "nM"}]}
{"smiles": "O=C(c1ccc2[nH]c3c(c2c1)CCNC3)N1CCC(Cc2ccc(F)cc2)CC1", "values": [{"measurement": "IC50", "setting": "MAPK14", "result": 243, "unit": "nM"}]}
{"smiles": "O=C1C(O)=C(c2coc3ccccc23)C(=O)C(O)=C1c1ccccc1", "values": [{"measurement": "activation", "setting": "EGFR [5]", "result": "< 5", "unit": "%"}]}
{"smiles": "O=C1C(O)=C(c2csc3ccccc23)C(=O)C(O)=C1c1ccccc1", "values": [{"measurement": "activation", "setting": "EGFR [5]", "result": "< 5", "unit": "%"}]}
{"smiles": "COc1ccc2c(c1)C[C@H](C(=O)Nc1ccc(-c3cn[nH]c3)cc1)NC2", "values": [{"measurement": "IC50", "setting": "ROCK2 (human)", "result": 134, "unit": "nM"}]}
{"smiles": "CC[C@H](Nc1nc(NCc2cnc(C)cc2C)c2ncn(C(C)C)c2n1)[C@@H](C)O", "values": [{"measurement": "IC50", "setting": "CDK2 (human) [4]", "result": "90 nM and 40 nM"}]}
{"smiles": "CN=C1NC(=O)/C(=C/c2ccc3ncnc(N(C)C)c3c2)S1", "values": [{"measurement": "IC50", "setting": "PIK3CG", "result": "< 1000", "unit": "nM"}]}
{"smiles": "CCCCC[C@@H](Cc1ccc2c3c(c[nH]c13)C[C@@H](CO)NC(=O)[C@H](C(C)C)N2C)NC(=O)c1ccc(N=[N+]=[N-])cc1", "values": [{"measurement": "ID50", "setting": "EGFR (mouse)", "result": 71, "unit": "nM"}]}
{"smiles": "CNc1cc2c(Nc3cccc(Br)c3)ncnc2cn1", "values": [{"measurement": "IC50", "setting": "EGFR [7]", "result": 0.008, "unit": "nM"}]}
{"smiles": "CN(C)CCCn1nc(C2=C(c3cn(-c4ccc5ccccc5c4)c4ccccc34)C(=O)NC2=O)c2ccccc21", "values": [{"measurement": "IC50", "setting": "EGFR [2]", "result": "> 10000", "unit": "nM"}]}
{"smiles": "C=C[C@@]1(C)CC[C@](C)(C(C)C)c2cc3c4c(c[nH]c4c21)C[C@@H](CO)NC(=O)[C@H](C(C)C)N3C", "values": [{"measurement": "ID50", "setting": "EGFR (mouse)", "result": 2.23, "unit": "nM"}]}
{"smiles": "CC(C)[C@H]1C(=O)N[C@H](CO)Cc2c[nH]c3cccc(c23)N1C", "values": [{"measurement": "ID50", "setting": "EGFR (mouse)", "result": 1110, "unit": "nM"}]}
{"smiles": "O=C1NC(=NCc2ccccc2)S/C1=C\\c1ccc2c(c1)OCO2", "values": [{"measurement": "IC50", "setting": "PIK3CG", "result": "< 1500", "unit": "nM"}]}
{"smiles": "Nc1cc2c(Nc3cccc(Br)c3)ncnc2cn1", "values": [{"measurement": "IC50", "setting": "EGFR [7]", "result": 0.13, "unit": "nM"}]}
{"smiles": "Nc1ccc2ncnc(Nc3cccc(Br)c3)c2n1", "values": [{"measurement": "IC50", "setting": "EGFR [7]", "result": 7.6, "unit": "nM"}]}
